Data published in paper PMC11932207, “Regulating AMPA Receptors with Isoxazole-4-Carboxamide Derivatives: An Electrophysiological Study” (Journal of Xenobiotics, 2025).
Where two headings read alike, the source gives them in different places.

Tests used:
Format in all cases: cell-based
GluN1a/2A = molecular target: T1, GluN1a/2A (Homo sapiens, UniProt Q05586+Q12879); experiment: Selectivity: whole-cell normalized peak current of NMDA receptor GluN1a/2A; conditions: 16 µM compound, HEK293t, −60 mV
T1 construct: expressed in transfected cells; host or cells: HEK293t cells
T1 sequence (Q12879 23-1464, other chains not shown): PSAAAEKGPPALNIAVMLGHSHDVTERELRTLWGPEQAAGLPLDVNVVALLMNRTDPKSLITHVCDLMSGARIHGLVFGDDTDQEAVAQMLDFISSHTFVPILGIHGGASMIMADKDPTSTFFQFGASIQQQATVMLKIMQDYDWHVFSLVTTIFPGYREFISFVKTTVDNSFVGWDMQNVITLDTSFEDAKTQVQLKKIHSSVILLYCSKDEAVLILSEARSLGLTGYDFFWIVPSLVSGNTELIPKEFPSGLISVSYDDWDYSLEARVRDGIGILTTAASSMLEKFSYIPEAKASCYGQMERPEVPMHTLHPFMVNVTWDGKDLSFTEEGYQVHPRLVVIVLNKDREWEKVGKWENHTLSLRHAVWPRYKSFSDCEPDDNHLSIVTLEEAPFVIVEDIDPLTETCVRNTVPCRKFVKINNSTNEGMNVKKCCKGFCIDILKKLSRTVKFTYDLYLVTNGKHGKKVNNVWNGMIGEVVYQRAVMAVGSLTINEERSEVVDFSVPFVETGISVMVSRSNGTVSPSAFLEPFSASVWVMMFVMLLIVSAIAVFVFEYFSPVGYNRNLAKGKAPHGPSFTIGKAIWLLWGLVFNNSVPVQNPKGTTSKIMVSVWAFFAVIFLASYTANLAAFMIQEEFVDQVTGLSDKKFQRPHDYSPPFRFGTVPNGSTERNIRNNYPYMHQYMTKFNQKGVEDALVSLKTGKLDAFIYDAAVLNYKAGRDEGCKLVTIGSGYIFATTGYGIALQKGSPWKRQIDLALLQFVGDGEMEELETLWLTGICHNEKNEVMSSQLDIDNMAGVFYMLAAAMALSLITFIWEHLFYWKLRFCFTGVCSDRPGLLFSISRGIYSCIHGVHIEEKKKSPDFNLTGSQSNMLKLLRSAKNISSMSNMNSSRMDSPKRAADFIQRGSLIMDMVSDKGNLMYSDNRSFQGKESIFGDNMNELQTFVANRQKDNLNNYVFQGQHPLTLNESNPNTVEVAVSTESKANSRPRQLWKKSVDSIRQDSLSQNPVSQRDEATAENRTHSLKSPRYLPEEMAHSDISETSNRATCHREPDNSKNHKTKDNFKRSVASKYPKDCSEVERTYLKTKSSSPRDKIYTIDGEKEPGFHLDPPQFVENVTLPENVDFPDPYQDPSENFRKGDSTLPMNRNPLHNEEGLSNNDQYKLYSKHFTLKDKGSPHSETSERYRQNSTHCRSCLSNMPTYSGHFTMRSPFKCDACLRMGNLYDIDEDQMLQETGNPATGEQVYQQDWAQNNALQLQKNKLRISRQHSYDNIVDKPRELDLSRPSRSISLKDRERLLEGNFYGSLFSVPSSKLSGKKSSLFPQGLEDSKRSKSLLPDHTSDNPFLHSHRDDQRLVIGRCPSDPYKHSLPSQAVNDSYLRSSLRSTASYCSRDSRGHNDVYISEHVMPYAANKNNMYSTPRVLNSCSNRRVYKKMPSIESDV
Description: (§1) To evaluate the selectivity of CIC-1 and CIC-2 derivatives, their effects on GluN1a/2A and GluN1a/2B of the NMDA receptors were tested. The normalized peak current responses of the subunits alone and with CIC-1 and CIC-2 were determined (Figure 4).
(§2) Figure 4 The inhibitory actions of Isoxazole-4-carboxamide derivatives on the whole-cell currents mediated by GluA2, GluA2/3 AMPA receptor subtypes and GluN1a/2A, […] receptor subtypes. (a) represents data for CIC-1 and CIC-2 compounds. AMPA- and NMDA-induced currents (black bars) are then compared to currents recorded in the presence of 16 µM CIC compounds (white bars). Panels (b–e) show representative traces of whole-cell current responses to a 1 ms administration of 10 mM glutamate for the subunits. The traces show normalized responses for glutamate alone (black) and glutamate in combination with CIC compounds (color-coded). The recording was performed in HEK293t cells at −60 mV, pH 7.4, and 22 °C. Data present mean ± SD from 3–4 different experiments. *** p < 0.001; and “ns” indicates not significant.

GluN1a/2B = molecular target: T2, GluN1a/2B (Homo sapiens, UniProt Q05586+Q13224); experiment: Selectivity: whole-cell normalized peak current of NMDA receptor GluN1a/2B; conditions: 16 µM compound, HEK293t, −60 mV
T2 construct: expressed in transfected cells; host or cells: HEK293t cells
T2 sequence (Q13224 27-1484, other chains not shown): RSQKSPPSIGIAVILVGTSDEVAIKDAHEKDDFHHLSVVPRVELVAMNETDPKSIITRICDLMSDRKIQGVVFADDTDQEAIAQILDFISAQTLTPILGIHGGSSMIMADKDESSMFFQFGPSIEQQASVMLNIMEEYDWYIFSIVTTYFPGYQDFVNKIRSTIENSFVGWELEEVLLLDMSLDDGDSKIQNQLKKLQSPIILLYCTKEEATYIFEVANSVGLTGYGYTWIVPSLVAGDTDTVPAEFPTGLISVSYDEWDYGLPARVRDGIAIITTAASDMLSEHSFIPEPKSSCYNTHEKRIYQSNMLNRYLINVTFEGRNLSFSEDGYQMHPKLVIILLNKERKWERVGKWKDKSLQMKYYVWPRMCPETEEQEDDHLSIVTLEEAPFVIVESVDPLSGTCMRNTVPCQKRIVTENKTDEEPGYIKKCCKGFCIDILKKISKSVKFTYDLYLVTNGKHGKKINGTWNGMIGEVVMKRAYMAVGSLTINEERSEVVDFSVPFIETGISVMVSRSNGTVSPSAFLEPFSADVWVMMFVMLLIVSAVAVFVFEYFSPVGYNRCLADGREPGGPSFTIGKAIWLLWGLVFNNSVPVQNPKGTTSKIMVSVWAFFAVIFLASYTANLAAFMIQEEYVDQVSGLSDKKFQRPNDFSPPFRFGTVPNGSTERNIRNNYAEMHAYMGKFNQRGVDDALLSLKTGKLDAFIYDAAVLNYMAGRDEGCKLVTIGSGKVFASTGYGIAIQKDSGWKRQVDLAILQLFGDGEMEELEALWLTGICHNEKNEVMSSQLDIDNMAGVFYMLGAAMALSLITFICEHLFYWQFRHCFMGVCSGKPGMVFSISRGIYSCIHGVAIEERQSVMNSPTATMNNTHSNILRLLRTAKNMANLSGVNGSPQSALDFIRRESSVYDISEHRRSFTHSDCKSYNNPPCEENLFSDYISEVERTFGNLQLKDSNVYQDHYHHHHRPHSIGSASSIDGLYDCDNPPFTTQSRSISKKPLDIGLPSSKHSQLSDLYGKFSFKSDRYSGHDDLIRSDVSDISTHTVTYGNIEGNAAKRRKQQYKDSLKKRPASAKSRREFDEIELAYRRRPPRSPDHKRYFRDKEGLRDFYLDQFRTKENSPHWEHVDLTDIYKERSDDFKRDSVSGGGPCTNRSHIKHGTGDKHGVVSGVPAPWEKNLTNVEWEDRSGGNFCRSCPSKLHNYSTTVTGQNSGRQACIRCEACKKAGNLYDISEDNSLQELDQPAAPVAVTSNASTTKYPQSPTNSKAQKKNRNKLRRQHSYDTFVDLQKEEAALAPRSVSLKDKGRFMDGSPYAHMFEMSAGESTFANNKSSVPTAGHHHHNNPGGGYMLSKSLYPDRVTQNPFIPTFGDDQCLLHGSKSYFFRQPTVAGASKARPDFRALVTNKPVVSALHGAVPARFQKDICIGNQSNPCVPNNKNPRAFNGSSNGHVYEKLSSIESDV
Description: as §1, §2

GluA2/3 = molecular target: T3, GluA2/3 (UniProt P19491+P42263); experiment: Whole-cell patch clamp recordings of heteromeric GluA2/3 AMPA receptor currents and kinetics in transfected HEK293t cells
T3 construct: expressed in transfected cells; host or cells: HEK293T (HEK293) cells, transient co-transfection
T3 sequence (P19491 22-883 isoform P19491-2 limits assumed): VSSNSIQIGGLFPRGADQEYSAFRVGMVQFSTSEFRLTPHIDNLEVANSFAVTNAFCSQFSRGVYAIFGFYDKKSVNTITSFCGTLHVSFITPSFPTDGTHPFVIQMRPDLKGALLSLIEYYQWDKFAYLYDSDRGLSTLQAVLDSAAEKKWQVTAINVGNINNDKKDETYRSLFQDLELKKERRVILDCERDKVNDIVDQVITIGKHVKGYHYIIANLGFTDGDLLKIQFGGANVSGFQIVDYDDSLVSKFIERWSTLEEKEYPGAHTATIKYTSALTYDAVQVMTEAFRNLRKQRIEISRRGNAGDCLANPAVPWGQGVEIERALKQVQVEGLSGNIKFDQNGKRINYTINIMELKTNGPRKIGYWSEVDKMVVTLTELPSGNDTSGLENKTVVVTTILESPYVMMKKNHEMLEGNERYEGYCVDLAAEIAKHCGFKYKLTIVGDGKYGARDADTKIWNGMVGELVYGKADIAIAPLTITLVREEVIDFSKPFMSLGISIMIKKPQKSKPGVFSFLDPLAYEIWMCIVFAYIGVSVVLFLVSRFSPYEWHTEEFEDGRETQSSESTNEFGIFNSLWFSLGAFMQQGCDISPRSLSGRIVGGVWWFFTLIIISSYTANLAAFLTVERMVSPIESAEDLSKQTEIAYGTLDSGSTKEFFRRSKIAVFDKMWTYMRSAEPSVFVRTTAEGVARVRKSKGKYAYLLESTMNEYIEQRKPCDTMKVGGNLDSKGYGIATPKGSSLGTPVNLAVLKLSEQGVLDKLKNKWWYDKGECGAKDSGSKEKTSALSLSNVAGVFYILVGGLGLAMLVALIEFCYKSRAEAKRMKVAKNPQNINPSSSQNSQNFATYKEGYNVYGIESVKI
T3 sequence (P42263 29-894 isoform P42263-2 limits assumed): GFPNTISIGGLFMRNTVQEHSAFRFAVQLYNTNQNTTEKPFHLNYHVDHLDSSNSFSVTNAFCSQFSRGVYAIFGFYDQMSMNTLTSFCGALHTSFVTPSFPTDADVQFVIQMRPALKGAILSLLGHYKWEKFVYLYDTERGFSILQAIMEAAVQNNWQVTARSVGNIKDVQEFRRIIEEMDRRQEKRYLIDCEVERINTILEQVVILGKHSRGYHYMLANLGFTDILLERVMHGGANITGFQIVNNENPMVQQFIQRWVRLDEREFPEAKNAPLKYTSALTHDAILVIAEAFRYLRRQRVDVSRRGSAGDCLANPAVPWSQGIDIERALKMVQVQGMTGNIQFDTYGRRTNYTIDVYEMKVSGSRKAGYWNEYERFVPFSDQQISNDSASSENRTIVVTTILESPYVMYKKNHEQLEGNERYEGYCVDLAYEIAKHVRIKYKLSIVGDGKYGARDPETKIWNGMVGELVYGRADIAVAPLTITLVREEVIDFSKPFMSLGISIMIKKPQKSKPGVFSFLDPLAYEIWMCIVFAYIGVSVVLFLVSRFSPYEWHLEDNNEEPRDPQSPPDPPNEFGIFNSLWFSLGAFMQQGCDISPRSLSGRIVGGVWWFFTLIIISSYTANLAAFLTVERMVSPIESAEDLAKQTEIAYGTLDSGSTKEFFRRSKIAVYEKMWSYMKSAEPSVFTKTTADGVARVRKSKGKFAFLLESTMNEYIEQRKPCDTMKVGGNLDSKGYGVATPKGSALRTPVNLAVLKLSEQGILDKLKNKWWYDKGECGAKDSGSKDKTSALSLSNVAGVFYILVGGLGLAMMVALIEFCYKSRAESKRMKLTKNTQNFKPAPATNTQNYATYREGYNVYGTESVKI
From the text: (§3) The AMPA receptor subunits utilized in this study were of the flip isoform. The flip variant of the GluA2 subunit was originally provided by S. F. Heinemann (Salk Institute, La Jolla, CA, USA) in a pBlueScript plasmid. This plasmid was subsequently sub-cloned into a pRK vector to enable expression in HEK293 cells, which were sourced from Sigma, Germany. Additionally, the unedited version of GluA2 (R607Qjj, flip isoform) and enhanced green fluorescent protein (EGFP), both contained in pRK5 vectors, were generously supplied by P. H. Seeburg (Max Planck Institute for Medical Research, Heidelberg, Germany). Chemical-mediated ways induced transfection. GluA2 homomers were expressed into HEK293 cells by the co-transfection of 1 μg GluA2 plasmid with an equal amount of GFP expression vectors (1:1 ratio) into the cells. In addition, co-transfection was conducted for heteromeric GluA2/3 subunits at a ratio of 1:1.2 for optimum expression. For post-transfection experiments, cells were plated in 10% fetal calf serum and antibiotics in DMEM in Petri plates. These cultures were maintained under carefully controlled conditions—37 °C and 5% CO2 within a humidified incubator. The selection of cells for recordings was based on fluorescence intensity. Highly GFP-positive cells were identified and isolated for further analysis, ensuring precise targeting of transfected populations.
(§4) Whole-cell patch clamp recordings were performed on HEK293t cells 36–48 h after transfection. Experiments were conducted at 22 °C, maintaining a holding potential of −60 mV, using an Integrated Patch Amplifier (IPA) from Sutter Instruments (Novato, CA, USA). Data acquisition was managed with SutterPatch Software v. 1.1.1 (Sutter Instruments), employing a sampling rate of 10 kHz and setting the low-pass filter at 2 kHz. […] The external solution contained 150 mM NaCl, 2.8 mM KCl, 0.5 mM MgCl2, 2 mM CaCl2, and 10 mM HEPES, adjusted to a pH of 7.4 using NaOH. The internal pipette solution was composed of 110 mM CsF, 30 mM CsCl, 4 mM NaCl, 0.5 mM CaCl2, 10 mM trypsin-EDTA solution B (0.25%), 0.05% EDTA, and 10 mM HEPES, with the pH adjusted to 7.2 using CsOH.
(§5) A dual-barrel glass pipette (theta tube) was employed for the rapid delivery of glutamate and other solutions. The theta tube was attached to a high-speed piezoelectric solution exchange system (Automate Scientific, Berkeley, CA, USA). To assess the efficiency of solution exchange, open-tip potentials were measured by applying solutions with different ionic compositions after the patch was expelled from the pipette. The time required for a 10–90% change in the solution was generally less than […].
(§6) Data analysis was performed with Igor Pro8.04 software (Wave Metrics, Inc., Portland, OR, USA). AMPA receptor deactivation and desensitization kinetics were measured by applying 10 mM glutamate for 1 ms and 500 ms, respectively. The currents from the AMPA receptor were fitted to a double-exponential model to quantify deactivation and desensitization time constants measured from the double-exponential fits. The weighted tau (τw) is calculated as: τw = (τf × af) + (τs × as), where τf and τs are the time constants of fast and slow exponential components and af and as represent their relative amplitudes.
(§7) Data are presented as the mean ± standard deviation (SD). The total number of HEK293 cells engaged was n = 10. The experimental groups were compared to the wild type using a one-way analysis of variance (ANOVA). Statistical significance was assessed using p values: p < 0.05 (*) indicated significance, p < 0.01 (**) indicated high significance, and p < 0.001 (***) indicated very high significance. The value “ns” indicates non-significance. Concentration–response relationships were modeled using the Hill equation with the resulting combined plots via GraphPad Prism software (version 6.01, GraphPad Software). The data presented are the means from 3–4 experimental replicates. […]

GluA2 = molecular target: T4, GluA2 (Rattus norvegicus, UniProt P19491); experiment: Whole-cell patch clamp recordings of homomeric GluA2 AMPA receptor currents and kinetics in transfected HEK293t cells
T4 construct: expressed in transfected cells; host or cells: HEK293T (HEK293) cells, transient co-transfection with a separate EGFP vector
T4 sequence (P19491 22-883 isoform P19491-2 limits assumed): as the sequence (P19491 22-883 isoform P19491-2 limits assumed) above
From the text: as §3, §4, §5, §6, §7

[1] = 16 µM compound co-applied with agonist, HEK293t, −60 mV, pH 7.4, 22 °C, mean ± SD, n = 10
[2] = 16 µM compound, mean ± SD, n = 10
[3] = 10 mM glutamate for 1 ms, with compound, mean ± SD
[4] = 10 mM glutamate for 500 ms, with compound, mean ± SD
[5] = concentration–response fit, read-out: Log IC50 (converted)
[6] = glutamate alone after the compound, mean ± SD, n = 10
[7] = inhibition of whole-cell peak current, concentration–response, Hill fit, read-out: IC50
[8] = versus glutamate alone, one-way ANOVA

Compound: COc1cc(NC(=O)c2c(-c3c(Cl)cccc3Cl)noc2C)c(OC)cc1Cl [CIC-2, N-(4-chloro-2,5-dimethoxyphenyl)-3-(2,6-dichlorophenyl)-5-methylisoxazole-4-carboxamide]
- Effect on normalized peak current (GluN1a/2A): statistically not significant
- Effect on normalized peak current (GluN1a/2B): statistically not significant
- Amplitude (peak whole-cell current in presence of compound) (GluA2/3; [1]): 75 ± 6 pA
- A/AI (amplitude ratio, glutamate alone / with compound) (GluA2/3; [2]): 7.65±0.45
- t deact (weighted deactivation time constant) (GluA2/3; [3]): 7.8 ± 0.4 ms
- t des (weighted desensitization time constant) (GluA2/3; [4]): 0.8 ± 0.1 ms
- IC50 (GluA2/3; [5]): 3.31 µM
- Amplitude, applying glutamate alone after compound (GluA2/3; [6]): 552±44 pA
- IC50 (GluA2/3; [7]): 3.32 µM
- Increase of deactivation time constant (τdeac) (GluA2/3; versus control): approximately 4 fold
- Effect on desensitization kinetics (τdes), in words (GluA2/3; [8]): accelerating desensitization
- Amplitude (peak whole-cell current in presence of compound) (GluA2; [1]): 160 ± 12 pA
- A/AI (amplitude ratio, glutamate alone / with compound) (GluA2; [2]): 7.79±0.42
- t deact (weighted deactivation time constant) (GluA2; [3]): 7.9 ± 0.3 ms
- t des (weighted desensitization time constant) (GluA2; [4]): 0.7 ± 0.1 ms
- IC50 (GluA2; [5]): 3.16 µM
- Amplitude, applying glutamate alone after compound (GluA2; [6]): 1213±94 pA
- IC50 (GluA2; [7]): 3.18 µM
- Increase of deactivation time constant (τdeac) (GluA2; versus control): approximately 4 fold
- Effect on desensitization kinetics (τdes), in words (GluA2; [8]): accelerating desensitization
